Data on 36 molecules can be found in US11479563B2, “Biphenyl compound or salt thereof” (TAIHO PHARMACEUTICAL CO., LTD., priority 2017, dated 2022).

SMILES strings stand for the structures.

For orientation: IC50 means the concentration that gives 50% inhibition.

Assay [1] has as its system HEL cells (human acute myelocytic leukemia cell lines). The assay is described as follows: cells. Conditions: read-out: Cell-Growth Inhibition Test: HEL Cells IC50 (nM).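 Also: viable cell count by CellTiter-Glo 2.0 luminescence after 5 days of culture at 37 °C, growth expressed relative to DMSO-only wells as 100%.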
Experimental: (§1) Under the following conditions, an in vitro cell-growth inhibition test was performed with respect to HEL cells (human acute myelocytic leukemia cell lines), NCI-H1417 cells (human small-cell lung cancer cell lines), and NCI-H146 cells (human small-cell lung cancer cell lines).
(§2) The cells with the compound of the present invention or with dimethylsulfoxide alone were cultured at 37° C. in a 5% carbon-dioxide-containing incubator for 5 days (HEL cells) or 10 days (NCI-H1417 cells and NCI-H146 cells). After culture, the plate was allowed to stand at room temperature for 30 minutes, and 100 μL of the supernatant was removed from each well to leave 100 μL of the cell culture solution. To each well containing the remaining 100 μL of the cell culture solution, the same amount of CellTiter-Glo 2.0 Assay (Promega, Cat #: G9242) was added. The microplate was shaken with a plate mixer for 1 minute and then allowed to stand in a dark place for 10 minutes. Thereafter, the luminescence intensity of viable cells in each well was measured using a microplate reader (PerkinElmer, EnSpire). […] Cell growth rate (%)=T/C×100 T: The luminescence intensity in a well to which the compound of the present invention was added (count per second) C: The luminescence intensity in a well to which dimethylsulfoxide alone was added (count per second)
The subject of assay [2] is NCI-H1417 cells (human small-cell lung cancer cell lines). Briefly: cells. Conditions: NCI-H1417, read-out: Cell-Growth Inhibition Test: NCI-H1417 Cells IC50 (nM).
Experimental: as §1, §2

Take `Cc1ccc(-c2ccc(C(=O)N3[C@@H]4CC[C@H]3C[C@H](N)C4)cc2-c2ccc(C#N)cc2)cc1` [Example 7]: the IC50 in assay [1] was determined as 14.8 nM; in assay [2], 28 nM.
Turning to `Cn1cnc2cc(-c3ccc(C(=O)N4[C@@H]5CC[C@H]4C[C@@H](N)C5)cc3-c3ccc(C#N)c(F)c3)c(F)cc21` [Example 130], the IC50 in assay [1] was found to be 22.2 nM; in assay [2] it was 8.25 nM.
Taken in the same sequence, the figures for `Cn1cnc2cc(-c3ccc(C(=O)N4[C@@H]5CC[C@H]4C[C@H](N)C5)cc3-c3ccc(C#N)c(F)c3)c(F)cc21` [Example 108] were 36.4 nM and 3.99 nM.
Taken in the same sequence, the figures for `CC(C)(O)Cn1nnc2cc(-c3ccc(C(=O)N4C5CCC4C(N)C5)cc3-c3ccc(C#N)c(F)c3)c(F)c(C(F)F)c21` [Example 246, 5′-((1S,2S,4R)-rel-2-amino-7-azabicyclo[2.2.1]heptane-7-carbonyl)-2′-(7-(difluoromethyl)-6-fluoro-1-(2-hydroxy-2-methylpropyl)-1H-benzo[d][1,2,3]triazol-5-yl)-3-fluoro-[1,1′-biphenyl]-4-carbonitrile-isomer-X] were 0.37 nM and 0.81 nM.
In the case of `CC(C)(O)Cn1ncc2cc(-c3ccc(C(=O)N4C5CCC4C(N)C5)cc3-c3ccc(C#N)c(F)c3)c(F)cc21` (stereo not shown) [Example 176], the IC50 in assay [1] came to 0.2 nM.
Regarding `Cn1c(=O)sc2cc(-c3ccc(C(=O)N4[C@@H]5CC[C@H]4C[C@@H](N)C5)cc3-c3ccc(C#N)c(F)c3)ccc21` [Example 133], the IC50 came to 17.7 nM in assay [1] and 17.9 nM in assay [2].
As for `N#Cc1ccc(-c2cc(C(=O)N3[C@@H]4CC[C@H]3C[C@H](N)C4)ccc2-c2ccc3cccnc3c2)cc1F` [Example 107], the IC50 in assay [2] stood at 18.2 nM.
In the case of `Cc1ccc(-c2ccc(C(=O)N3[C@@H]4CC[C@H]3C[C@@H](N)C4)cc2-c2ccc(C#N)c(F)c2)c(F)c1F` [Example 144], in assay [1], the IC50 is 6.37 nM.
For the molecule `CC(C)N[C@@H]1C[C@H]2CC[C@@H](C1)N2C(=O)c1ccc(-c2ccc(CC(C)(C)O)cc2F)c(-c2ccc(C#N)c(F)c2)c1` [Example 113], the IC50 in assay [1] was determined as 9 nM; in assay [2], 13.7 nM.
`CC(C)(O)Cn1cc(C(=O)O)c2cc(-c3ccc(C(=O)N4C5CCC4C(N)C5)cc3-c3ccc(C#N)c(F)c3)c(F)cc21` [Example 222, 5-(5-((1S,2S,4R)-rel-2-amino-7-azabicyclo[2.2.1]heptane-7-carbonyl)-4′-cyano-3′-fluoro-[1,1′-biphenyl]-2-yl)-6-fluoro-1-(2-hydroxy-2-methylpropyl)-1H-indole-3-carboxylic acid-isomer-X]: the IC50 came out at 38 nM in assay [1] and 41.8 nM in assay [2].
With `Cn1nnc2cc(-c3ccc(C(=O)N4C5CCC4C(N)C5)cc3-c3ccc(C#N)c(F)c3)c(F)c(F)c21` (stereo not shown) [Example 175], in assay [1], the IC50 was found to be 0.2 nM.
With `CC(C)(O)Cn1nnc2cc(-c3ccc(C(=O)N4C5CCC4C(N)C5)cc3-c3ccc(C#N)c(F)c3)c(F)c(C3CC3)c21` [Example 279, 5′-((1R,2R,4S)-rel-2-amino-7-azabicyclo[2.2.1]heptane-7-carbonyl)-2′-(7-cyclopropyl-6-fluoro-1-(2-hydroxy-2-methylpropyl)-1H-benzo[d][1,2,3]triazol-5-yl)-3-fluoro-[1,1′-biphenyl]-4-carbonitrile-isomer-X], the results for the IC50 in assay [1] and in assay [2] were 1.59 nM and 0.9 nM, respectively.
For the molecule `Cn1cc(C(=O)O)c2cc(-c3ccc(C(=O)N4C5CCC4C(N)C5)cc3-c3ccc(C#N)c(F)c3)c(F)cc21` [Example 224, 5-(5-((1S,2S,4R)-rel-2-amino-7-azabicyclo[2.2.1]heptane-7-carbonyl)-4′-cyano-3′-fluoro-[1,1′-biphenyl]-2-yl)-6-fluoro-1-methyl-1H-indole-3-carboxylic acid-isomer-X], the half-inhibitory concentration (IC50) in assay [1] turned out to be 46.2 nM.
Turning to `N#Cc1ccc(-c2cc(C(=O)N3[C@@H]4CC[C@H]3C[C@H](N)C4)ccc2-c2ccc3ccccc3c2)cc1F` [Example 104], the IC50 came to 28.8 nM in assay [1] and 49.8 nM in assay [2].
For `CC(C)(O)Cn1ncc2cc(-c3ccc(C(=O)N4[C@@H]5CC[C@H]4C[C@@H](N)C5)cc3-c3ccc(C#N)c(F)c3)c(F)cc21` [Example 142], in that order: 3.86 nM and 3.79 nM.
Turning to `CC(C)(C)n1nnc2cc(-c3ccc(C(=O)N4[C@@H]5CC[C@H]4C[C@@H](N)C5)cc3-c3ccc(C#N)c(F)c3)c(F)cc21` [Example 139], the IC50 in assay [1] turned out to be 16.9 nM.
As to `CN(C)c1ccc(-c2ccc(C(=O)N3[C@@H]4CC[C@H]3C[C@@H](N)C4)cc2-c2ccc(C#N)c(F)c2)cn1` [Example 131], the IC50 turned out to be 15.2 nM in assay [1] and 30.9 nM in assay [2].
`Cn1nnc2cc(-c3ccc(C(=O)N4[C@@H]5CC[C@H]4C[C@@H](N)C5)cc3-c3ccc(C#N)c(F)c3)c(F)cc21` [Example 125]: the figures for the IC50 in assay [1] and in assay [2] were 7.57 nM and 8.43 nM, respectively.
Taken in the same sequence, the figures for `Cn1ncc2c(F)c(-c3ccc(C(=O)N4[C@@H]5CC[C@H]4C[C@H](N)C5)cc3-c3ccc(C#N)c(F)c3)ccc21` [Example 110] were 7.41 nM and 3.54 nM.
For the molecule `Cc1ccc(-c2ccc(C(=O)N3[C@@H]4CC[C@H]3C[C@@H](N)C4)cc2-c2ccc(C#N)c(F)c2)c(F)c1` [Example 21], the IC50 is 8.34 nM in assay [1] and 32.6 nM in assay [2].
For `CC(C)(O)Cn1ccc2cc(-c3ccc(C(=O)N4[C@@H]5CC[C@H]4C[C@@H](N)C5)cc3-c3ccc(C#N)c(F)c3)c(F)cc21` [Example 136], in that order: 0.9 nM and 2.39 nM.
Taken in the same sequence, the figures for `Cn1nnc2cc(-c3ccc(C(=O)N4[C@@H]5CC[C@H]4C[C@@H](N)C5)cc3-c3ccc(C#N)c(F)c3)c(F)c(F)c21` [Example 145] were 1.61 nM and 3.29 nM.
Taken in the same sequence, the figures for `Cn1cnc2cc(-c3ccc(C(=O)N4[C@@H]5CC[C@H]4C[C@@H](N)C5)cc3-c3ccc(C#N)c(F)c3)c(F)c(F)c21` [Example 126] were 5.39 nM and 5.02 nM.
In the case of `CC(C)(O)Cn1ccc2cc(-c3ccc(C(=O)N4C5CCC4C(N)C5)cc3-c3ccc(C#N)c(F)c3)c(F)cc21` (stereo not shown) [Example 171], the IC50 in assay [1] came out at 0.09 nM.
On to `N#Cc1ccc(-c2cc(C(=O)N3[C@@H]4CC[C@H]3C[C@H](N)C4)ccc2-c2ccc3cccnc3c2F)cc1F` [Example 105], for which the IC50 in assay [2] stood at 11.7 nM.
As to `Cn1nnc2cc(-c3ccc(C(=O)N4[C@@H]5CC[C@H]4C[C@H](N)C5)cc3-c3ccc(C#N)c(F)c3)c(F)cc21` [Example 109], the IC50 is 15.1 nM in assay [1] and 1.81 nM in assay [2].
For `CCCn1nnc2cc(-c3ccc(C(=O)N4[C@@H]5CC[C@H]4C[C@@H](N)C5)cc3-c3ccc(C#N)c(F)c3)c(F)cc21` [Example 168], the IC50 in assay [1] was 5.29 nM; in assay [2], 7.29 nM.
As to `CC(C)(O)Cn1nnc2cc(-c3ccc(C(=O)N4CC[C@H](N)C4)cc3-c3ccc(C#N)c(F)c3)c(F)c(F)c21` [Example 162], the IC50 was 17.7 nM in assay [1] and 4.69 nM in assay [2].
As to `CCn1nnc2cc(-c3ccc(C(=O)N4[C@@H]5CC[C@H]4C[C@@H](N)C5)cc3-c3ccc(C#N)c(F)c3)c(F)cc21` [Example 160], the IC50 in assay [1] is 7.03 nM; in assay [2], 9.2 nM.
For `COCCc1ccc(-c2ccc(C(=O)N3[C@@H]4CC[C@H]3C[C@H](N)C4)cc2-c2ccc(C#N)c(F)c2)c(F)c1` [Example 26], in that order: 4.83 nM and 3.15 nM.
Turning to `CN1CCOc2cc(-c3ccc(C(=O)N4[C@@H]5CC[C@H]4C[C@H](N)C5)cc3-c3ccc(C#N)c(F)c3)ccc21` [Example 106], the IC50 in assay [1] was found to be 5.74 nM; in assay [2], 6.15 nM.
Turning to `Cn1ncc2cc(-c3ccc(C(=O)N4[C@@H]5CC[C@H]4C[C@@H](N)C5)cc3-c3ccc(C#N)c(F)c3)c(F)cc21` [Example 124], the IC50 is 2.84 nM in assay [1] and 9.02 nM in assay [2].
`CC(C)(O)Cc1ccc(-c2ccc(C(=O)N3[C@@H]4CC[C@H]3C[C@H](N)C4)cc2-c2ccc(C#N)c(F)c2)c(F)c1` [Example 28]: the IC50 in assay [2] was 4.4 nM.
With `CC(C)(O)Cn1nc(Br)c2cc(-c3ccc(C(=O)N4[C@@H]5CC[C@H]4C[C@@H](N)C5)cc3-c3ccc(C#N)c(F)c3)c(F)cc21` [Example 178, 5′-((3-endo)-3-amino-8-azabicyclo[3.2.1]octane-8-carbonyl)-2′-(3-bromo-6-fluoro-1-(2-hydroxy-2-methylpropyl)-1H-indazol-5-yl)-3-fluoro-[1,1′-biphenyl]-4-carbonitrile], the values for the IC50 in assay [1] and in assay [2] were 3.57 nM and 3.03 nM, respectively.
Consider `COCCc1ccc(-c2ccc(C(=O)N3[C@@H]4CC[C@H]3C[C@H](NC(C)C)C4)cc2-c2ccc(C#N)c(F)c2)c(F)c1` [Example 112], for which the 50% inhibitory concentration (IC50) in assay [2] is 20.5 nM.
Consider `CN1CCOc2cc(-c3ccc(C(=O)N4[C@@H]5CC[C@H]4C[C@@H](N)C5)cc3-c3ccc(C#N)c(F)c3)ccc21` [Example 128], for which the half-inhibitory concentration (IC50) in assay [1] stood at 5.7 nM.
